Like-named read-outs stand apart in the source and are kept apart here.

Two compounds from paper PMC9408991, “Antitumor Effects of a New Retinoate of the Fungal Cytotoxin Illudin M in Brain Tumor Models” (International Journal of Molecular Sciences, 2022) can be followed below.

Assay [1] has as its system MCF-7^+Topo breast carcinoma cells. Briefly: MTT cell viability assay, MCF-7+Topo breast carcinoma. The format is cell-based. The following applies: Homo sapiens, MCF7/Topo, read-out: Inhibitory concentration IC50. On the procedure: (§1) 518A2 (Department of Radiotherapy, Medical University of Vienna, Vienna, Austria) melanoma, KB-V1^Vbl (ACC-149) cervix carcinoma, MCF-7^Topo (ACC-115) breast carcinoma, HT29 (ACC-299) colon carcinoma were cultivated in Dulbecco’s Modified Eagle Medium (DMEM) supplemented with 10% fetal bovine serum and 1% antibiotic-antimycotic at 37 °C, 5% CO2, and 95% humidity. To keep MCF-7^Topo and KB-V1^Vbl cells resistant, the maximum-tolerated doses of topotecan or vinblastine were added to the cell culture medium 24 h after every passage. The human HL60 leukemia cells were obtained from the German National Resource Center for Biological Material (DSMZ), Braunschweig. Neuroectodermal stem cells NE-4C (ATCC No. CRL-2925), primary mouse astrocytes, rat glioma C6 (ATCC No. CCL-107) and human glioma U87 (ATCC No. HTB-14) were used.
(§2) Non-GBM cells (5 × 10^4 cells/mL, 100 µL/well) were grown in 96-well plates for 24 h. […] After the addition of 12.5 µL of a 0.5% MTT solution in PBS, the cells were incubated for 3 h at 37 °C so that the water-soluble MTT could be converted to formazan crystals. Then, the plates were centrifuged (300× g, 5 min, 4 °C), the medium withdrawn, and the formazan dissolved in 25 µL of DMSO containing 10% sodium dodecylsulfate (SDS) and 0.6% acetic acid for at least 2 h at 37 °C. In the case of the HL60 cells, after 2 h, the precipitate of formazan crystals was redissolved in a 10% solution of SDS in DMSO containing 0.6% acetic acid.
Background: Formazan colour is commonly taken as a measure of viable cells.

For assay [2], the system named is primary neurons. Briefly: MTT cell viability assay, primary neurons. The format is cell-based. The following applies: Mus musculus, Primary neuron, read-out: Inhibitory concentration IC50. On the procedure: (§3) NE-4C cells derived from the anterior brain vesicles of p53-deficient 9-day-old mouse embryos were maintained in Minimum Essential Medium (MEM; Sigma Aldrich, Taufkirchen, Germany) supplemented with 5% fetal calf serum (FCS; Invitrogen-Gibco, Carlsbad, CA, USA), 4 mM glutamine (Sigma-Aldrich, Taufkirchen, Germany) and 40 ug/mL gentamycin (Chinoin, Budapest, Hungary). For maintenance, subconfluent cultures were regularly split by trypsinization (0.05 w/v% trypsin in PBS) into poly-L-lysine-coated Petri dishes. Primary astrocytes were isolated from whole brains of neonatal (P0-P3) mice, as described earlier. In brief, meninges were removed, and the tissue pieces were subjected to enzymatic dissociation, using 0.05% w/v trypsin and 0.05% w/v DNase for 10 min at room temperature. The cells were plated onto poly-L-lysine coated plastic surfaces and grown in MEM supplemented with 10% fetal calf serum, 4 mM glutamine and 40 ug/mL gentamycin. Primary neuronal cultures were prepared from embryonic (E15–E16) mouse (CD1) forebrains, as described earlier. In brief, cell suspensions were prepared by mechanical dissociation over a nylon mesh with a pore diameter of 40–42 μm. The cells were seeded at 10^5 cells/cm^2 density onto PLL-coated surfaces. The cultures were maintained in MEM supplemented with 5% FCS, 4 mM glutamine, 40 µg/mL gentamicin and 2.5 μg/mL amphotericin B (Sigma). In co-culture experiments, U87 glioma cells were seeded onto established neuronal cultures at DIV3 in a 25,000 cell/cm^2 density.
as §2

In assay [3] the test system is 518A2 melanoma cells. Briefly: MTT cell viability assay, 518A2 melanoma. The class given is cell-based. The following applies: Homo sapiens, read-out: Inhibitory concentration IC50. As for the experimental part:
as §1, §2

Assay [4] has as its system U251 glioblastoma cells. Nature of the assay: MTT cell viability assay, U251 glioblastoma. The class given is cell-based. The following applies: Homo sapiens, read-out: Inhibitory concentration IC50. On the procedure:
(§4) U251 (formerly known as U-373 MG; ECACC 09063001), Mz54 (CVCL_M406) human glioblastoma cell lines were cultured in DMEM+GlutaMax supplemented with 10% fetal bovine serum and 1% penicillin/streptomycin mixture. The human glioma cell line Mz54 was obtained from the Dept. of Neurosurgery, University Medical Centre, Johannes Gutenberg University Mainz, Germany, where this line was isolated from a recurrent grade IV glioblastoma. U251 and Mz54 cells were used in passages between 10 and 25 after re-authentication and 40 to 55 after culture establishment, respectively. Only mycoplasma-free cell cultures were used.
(§5) […] Afterward, 10 µL of a 5 mg/mL MTT solution in PBS was added to the cells for 3 h at 37 °C. Then, the spheres were centrifuged shortly to collect the cells on the bottom of the plate, and the medium was removed by careful pipetting for both adherently grown and floating sphere GBM cultures. Afterward, formazan was dissolved in a mixture (24:1 v:v) of isopropanol and 1 M HCl using 100 µL for adherent cells by shaking the plates for at least 20 min. The absorbance of formazan (λ = 570 nm), and background (λ = 630 nm) was measured with a microplate reader (Tecan Spark, Tecan Deutschland GmbH, Crailsheim, Germany).

In assay [5] the test system is U87 glioma cells. Nature of the assay: MTT cell viability assay, U87 glioma. The class given is cell-based. The following applies: Homo sapiens, U-87 MG, read-out: Inhibitory concentration IC50. As for the experimental part:
as §1, §5

Assay [6] has as its system MZ-54 glioblastoma cells. Briefly: MTT cell viability assay, MZ-54 glioblastoma. The format is cell-based. The following applies: Homo sapiens, read-out: Inhibitory concentration IC50. On the procedure:
as §4, §5

The subject of assay [7] is primary astrocytes. Briefly: MTT cell viability assay, primary astrocytes. The class given is cell-based. The following applies: Mus musculus, Astrocyte, read-out: Inhibitory concentration IC50. As for the experimental part:
as §3, §2

Assay [8] deals with astrocytes and neurons in primary neuronal cultures. Nature of the assay: Immunostaining of GFAP and βIII-tubulin in primary neuronal cultures. The following applies: 1 µM; for effect on GFAP filaments of astrocytes: 48 h exposure. The format is cell-based, mouse. As for the experimental part: Astroglia cells grown on poly-L-lysine-coated glass cover slips were fixed with 4% paraformaldehyde in PBS for 20 min at room temperature and then permeabilized with Triton X-100 (0.1% v/v in PBS; 5 min). Nonspecific antibodies were blocked by incubation with 3% FBS in PBS (room temperature, 1 h). α-GFAP antibody (rabbit, DAKO) was used in a dilution of 1:2000 and was visualized by anti-rabbit IgG Alexa 594 (1:1000). DAPI (4′,6-diamidino-2-phenylindole) was used for nuclei staining. Fluorescence images were captured manually on a Zeiss Axiovert 200 M microscope fitted with 20- to 60-fold zoom and a Zeiss AxioCam MRm digital camera. Further applied antibodies were tubulin III (Sigma T5076), used at a dilution of 1:1000, and Annexin V. Cy3.18 (Sigma A4963).
Figure 4 Immunostaining of primary neurons derived from E14, 5 forebrains treated with 1 µM of 1, 2 or all-trans retinoic acid (RA) plus 1. Blue: nuclei stained with DAPI; green: tubulin stained with βIII-tubulin specific antibody; red: GFAP stained with α-GFAP antibody. Fluorescence microscope Zeiss Axiovert 200 M, 63× objective, 1024 × 1024 res. Scale bar: 50 µm.

Consider `CC1=C2C(=CC(C)(C)[C@@H]2O)C(=O)[C@](C)(O)C12CC2` [Compound 1, illudin M], for which the IC50 in assay [1] (24 h exposure) came to 350 ± 130 nM; in assay [1] (48 h exposure) it was 50 ± 10 nM; in assay [2] (24 h exposure), 600 ± 120 nM; in assay [2] (48 h exposure) it was 190 ± 40 nM; in assay [3] (518A2, 24 h exposure), 40 ± 10 nM; in assay [3] (518A2, 48 h exposure) it was 20 ± 10 nM. Besides, the IC50 in assay [4] (U-251, U251, 24 h exposure) was 300 ± 50 nM; in assay [4] (U-251, U251, 48 h exposure), 120 ± 20 nM; in assay [5] (U87, 24 h exposure), 630 ± 40 nM; in assay [5] (U87, 48 h exposure), 130 ± 30 nM; in assay [6] (MZ-54, 24 h exposure), 550 ± 160 nM; in assay [6] (MZ-54, 48 h exposure), 60 ± 10 nM. Moreover, the values for the IC50 in assay [7] (24 h exposure) and in assay [7] (48 h exposure) were 1500 ± 400 nM and 200 ± 30 nM, respectively. In addition, the “effect on neuronal networks” value in assay [8] (48 h) is reported as “did not completely disorganize neuronal networks”. The “effect on GFAP filaments of astrocytes” value in assay [8] is reported as “markedly pitted”.

For `CC1=C(/C=C/C(C)=C/C=C/C(C)=C/C(=O)O[C@@H]2C3=C(C)C4(CC4)[C@@](C)(O)C(=O)C3=CC2(C)C)C(C)(C)CCC1` [Compound 2, illudin M retinoate], the IC50 in assay [1] (24 h exposure) stood at 2500 ± 600 nM; in assay [1] (48 h exposure), 80 ± 10 nM; in assay [2] (24 h exposure), 26000 ± 1000 nM; in assay [2] (48 h exposure), 14000 ± 2000 nM; in assay [3] (518A2, 24 h exposure), 5000 ± 300 nM; in assay [3] (518A2, 48 h exposure), 4000 ± 700 nM. The IC50 in assay [4] (U-251, U251, 48 h exposure) came out at 4510 ± 1300 nM; in assay [5] (U87, 24 h exposure) it was 37000 ± 3000 nM; in assay [5] (U87, 48 h exposure), 2700 ± 700 nM; in assay [6] (MZ-54, 48 h exposure), 5480 ± 1200 nM; in assay [7] (24 h exposure), 45000 ± 2000 nM; in assay [7] (48 h exposure) it was 33000 ± 4000 nM. Besides, the “effect on GFAP filaments of astrocytes” value in assay [8] was “did not cause similar alterations to astrocytes”.
